These results are taken from PubChem BioAssay AID330 (DTP/NCI, 2004).

Where “and” joins values, the source holds several entries; their conditions need not be identical. Equal entries are not always repeated. Inconclusive results and toxic doses are left out.

The assay concerns P388 leukemia ip, CD2F1 mice, survival T/C. Briefly: NCI In Vivo Anticancer Drug Screen. Data for tumor model P388 Leukemia (intraperitoneal) in CD2F1 (CDF1) mice. The conditions noted are these: endpoint: median survival time, higher = longer survival. The procedure, abridged:
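Mice carrying the transplanted tumor received test compound or vehicle. Survival was recorded in each group, and the value is the treated-group measurement divided by that of the vehicle-treated control group.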

[1] abbreviates: dose: 60.0 mg/kg/injection, schedule: Q01DX005 (ip), vehicle: Klucel (hydroxypropylcellulose) (HPC).
Where [2] appears, read: dose: 120.0 mg/kg/injection, schedule: Q01DX005 (ip), vehicle: Klucel (hydroxypropylcellulose) (HPC).
Setting [3] is: dose: 240.0 mg/kg/injection, schedule: Q01DX005 (ip), vehicle: Klucel (hydroxypropylcellulose) (HPC).
Where [4] appears, read: dose: 50.0 mg/kg/injection, schedule: Q04DX003 (ip), vehicle: saline.
The mark [5] stands for this setting: dose: 100.0 mg/kg/injection, schedule: Q04DX003 (ip), vehicle: saline.
Setting [6] is: dose: 200.0 mg/kg/injection, schedule: Q04DX003 (ip), vehicle: saline.
The mark [7] stands for this setting: dose: 100.0 mg/kg/injection, schedule: Q04DX002 (ip), vehicle: Klucel (hydroxypropylcellulose) (HPC).
The mark [8] stands for this setting: dose: 200.0 mg/kg/injection, schedule: Q04DX002 (ip), vehicle: Klucel (hydroxypropylcellulose) (HPC).
Where [9] appears, read: dose: 400.0 mg/kg/injection, schedule: Q04DX002 (ip), vehicle: Klucel (hydroxypropylcellulose) (HPC).
[10] abbreviates: dose: 50.0 mg/kg/injection, schedule: Q01DX009 (ip), vehicle: Klucel (hydroxypropylcellulose) (HPC).
Where [11] appears, read: dose: 100.0 mg/kg/injection, schedule: Q01DX009 (ip), vehicle: Klucel (hydroxypropylcellulose) (HPC).
[12] abbreviates: dose: 50.0 mg/kg/injection, schedule: Q01DX005 (ip), vehicle: Klucel (hydroxypropylcellulose) (HPC).
The mark [13] stands for this setting: dose: 100.0 mg/kg/injection, schedule: Q01DX005 (ip), vehicle: Klucel (hydroxypropylcellulose) (HPC).
[14] abbreviates: dose: 200.0 mg/kg/injection, schedule: Q01DX005 (ip), vehicle: Klucel (hydroxypropylcellulose) (HPC).
Setting [15] is: dose: 50.0 mg/kg/injection, schedule: Q01DX005 (ip), vehicle: saline.
Where [16] appears, read: dose: 100.0 mg/kg/injection, schedule: Q01DX005 (ip), vehicle: saline.

Turning to `CCCCCCCCCCCCCCCC(=O)N(CCCN)C(C)(C)CCC(C)(C)N(CCCN)C(=O)CCCCCCCCCCCCCCC`, the T/C reads like this: (dose: 1.56 mg/kg/injection, schedule: Q01DX009 (ip), vehicle: water) 101 % of control; (dose: 3.13 mg/kg/injection, schedule: Q01DX009 (ip), vehicle: water) 107 % of control; (dose: 6.25 mg/kg/injection, schedule: Q01DX009 (ip), vehicle: water) 114 % of control; (dose: 12.5 mg/kg/injection, schedule: Q01DX009 (ip), vehicle: water) 113 % of control; (dose: 25.0 mg/kg/injection, schedule: Q01DX009 (ip), vehicle: water) 93 % of control.

As for `O=C(O)CCN(Cl)Cl`, the T/C is 98 % of control (dose: 60.0 mg/kg/injection, schedule: Q01DX005 (ip), vehicle: saline); 104 % of control (dose: 120.0 mg/kg/injection, schedule: Q01DX005 (ip), vehicle: saline); 95 % of control (dose: 240.0 mg/kg/injection, schedule: Q01DX005 (ip), vehicle: saline).

As for `COc1ccccc1C1OC2=C(Nc3ccccc3N2)C1=O` (stereo unspecified), the T/C runs as follows: (dose: 30.0 mg/kg/injection, schedule: Q01DX005 (ip), vehicle: Klucel (hydroxypropylcellulose) (HPC)) 101 % of control; under setting [1], 97 % of control and 98 % of control; under setting [2], 91 % of control; under setting [3], 92 % of control.

Regarding `O=C1CNC(=O)N1c1ccccc1`, the T/C was 103 % of control (dose: 100.0 mg/kg/injection, schedule: Q01DX009 (ip), vehicle: saline with Tween-80); 98 % of control (dose: 200.0 mg/kg/injection, schedule: Q01DX009 (ip), vehicle: saline with Tween-80); 103 % of control (dose: 400.0 mg/kg/injection, schedule: Q01DX009 (ip), vehicle: saline with Tween-80).

In the case of `Cc1nc(C(=O)O)cc(Cl)c1C`, the T/C reads like this: (dose: 12.5 mg/kg/injection, schedule: Q01DX009 (ip), vehicle: distilled water + Tween-80) 100 % of control; (dose: 25.0 mg/kg/injection, schedule: Q01DX009 (ip), vehicle: distilled water + Tween-80) 100 % of control; (dose: 50.0 mg/kg/injection, schedule: Q01DX009 (ip), vehicle: distilled water + Tween-80) 96 % of control; (dose: 100.0 mg/kg/injection, schedule: Q01DX009 (ip), vehicle: distilled water + Tween-80) 100 % of control; (dose: 200.0 mg/kg/injection, schedule: Q01DX009 (ip), vehicle: distilled water + Tween-80) 96 % of control.

Regarding `CC(C)(C#N)NNC(N)=S`, the T/C was 103 % of control (dose: 3.12 mg/kg/injection, schedule: Q01DX009 (ip), vehicle: saline); 100 % of control (dose: 6.25 mg/kg/injection, schedule: Q01DX009 (ip), vehicle: saline); 87 % of control and 93 % of control (dose: 12.5 mg/kg/injection, schedule: Q01DX009 (ip), vehicle: saline); 96 % of control under setting [4]; 96 % of control under setting [5]; 94 % of control under setting [6].

As for `COC(=O)n1oc2c(Br)cc(Br)cc2c1=O`, the T/C was 93 % of control under setting [7], 101 % of control under setting [8] and 101 % of control under setting [9].

For `O=C(O)c1ccc(Cl)c(Cl)c1`, the T/C reads like this: (dose: 12.5 mg/kg/injection, schedule: Q01DX009 (ip), vehicle: Klucel (hydroxypropylcellulose) (HPC)) 101 % of control; (dose: 25.0 mg/kg/injection, schedule: Q01DX009 (ip), vehicle: Klucel (hydroxypropylcellulose) (HPC)) 110 % of control; under setting [10], 99 % of control; under setting [11], 108 % of control.

Take `O=C(O)c1cc(F)cc(C(=O)O)c1`: the T/C was 109 % of control (dose: 50.0 mg/kg/injection, schedule: Q04DX003 (ip), vehicle: suspension in saline); 104 % of control (dose: 100.0 mg/kg/injection, schedule: Q04DX003 (ip), vehicle: suspension in saline); 110 % of control (dose: 200.0 mg/kg/injection, schedule: Q04DX003 (ip), vehicle: suspension in saline).

On to `CC1SC(N)=NN=C1c1c(O)c2ccccc2oc1=O` (stereo unspecified), for which the T/C is 103 % of control under setting [7], 98 % of control under setting [8] and 97 % of control under setting [9].

For `CCCCOC(=O)/C=C/C(=O)N1CCN(C(=O)/C=C/C(=O)OCCCC)C(C)C1` (stereo unspecified), the T/C runs as follows: under setting [12], 100 % of control; under setting [13], 94 % of control; under setting [14], 96 % of control.

`c1ccc(NC2=NCCO2)nc1`: the T/C by setting is: (dose: 50.0 mg/kg/injection, schedule: Q04DX003 (ip), vehicle: saline with Tween-80) 100 % of control; (dose: 100.0 mg/kg/injection, schedule: Q04DX003 (ip), vehicle: saline with Tween-80) 95 % of control; (dose: 200.0 mg/kg/injection, schedule: Q04DX003 (ip), vehicle: saline with Tween-80) 100 % of control.

As to `COc1cc(/C=C\C(=O)c2cccc(O)c(=O)c2)cc(OC)c1OC`, the T/C by setting is: under setting [10], 112 % of control; under setting [11], 87 % of control.

`NCC(N)CCC(=O)O` (stereo unspecified): the T/C is, setting by setting: under setting [15], 99 % of control; under setting [16], 105 % of control; (dose: 200.0 mg/kg/injection, schedule: Q01DX005 (ip), vehicle: saline) 105 % of control.

As for `CC(C)(C)NC(=O)C(Cl)Cl`, the T/C reads like this: (dose: 50.0 mg/kg/injection, schedule: Q01DX001 (ip), vehicle: saline with Tween-80) 100 % of control; (dose: 100.0 mg/kg/injection, schedule: Q01DX001 (ip), vehicle: saline with Tween-80) 100 % of control; (dose: 200.0 mg/kg/injection, schedule: Q01DX001 (ip), vehicle: saline with Tween-80) 95 % of control.

Consider `CCn1c(=NC(=O)c2ccccc2O)ccn1C`, for which the T/C reads like this: under setting [1], 95 % of control; under setting [2], 90 % of control; under setting [3], 88 % of control.

For the compound `Cc1nc2c(cnn2C)c(=O)n1-c1ccccc1Cl`, the T/C was 103 % of control under setting [12], 95 % of control under setting [13] and 98 % of control under setting [14].

For the compound `O=C1NC2(CCCCC2)C(=O)N1CCCCN(CCCl)CCCl`, the T/C is, setting by setting: (dose: 1.5 mg/kg/injection, schedule: Q01DX005 (ip), vehicle: saline) 122 % of control; (dose: 6.0 mg/kg/injection, schedule: Q01DX005 (ip), vehicle: saline) 119 % of control; (dose: 24.0 mg/kg/injection, schedule: Q01DX005 (ip), vehicle: saline) 165 % of control; under setting [15], 160 % of control; under setting [16], 187 % of control.

In the case of `O=[N+]([O-])O.O=[N+]([O-])O.[Cu].c1cnc2c(c1)ccc1cccnc12`, the T/C (dose: 1.56 mg/kg/injection, schedule: Q04DX002 (ip), vehicle: saline) was 101 % of control; the T/C (dose: 6.25 mg/kg/injection, schedule: Q04DX002 (ip), vehicle: saline) was 99 % of control and 106 % of control.

For `C/C1=C/C2OC(=O)C3(C)C2C(CC2(C)OC1=CC2=O)OC3(O)C(C)C` (stereo unspecified), the T/C (dose: 10.0 mg/kg/injection, schedule: Q01DX005 (ip), vehicle: saline + alcohol) was 100 % of control; the T/C (dose: 20.0 mg/kg/injection, schedule: Q01DX005 (ip), vehicle: saline + alcohol) was 102 % of control; the T/C (dose: 40.0 mg/kg/injection, schedule: Q01DX005 (ip), vehicle: saline + alcohol) is 99 % of control; the T/C (dose: 80.0 mg/kg/injection, schedule: Q01DX005 (ip), vehicle: saline + alcohol) is 109 % of control.

On to `CCN(CC)CCOCC(=O)Nc1c(C)cccc1Cl`, for which the T/C under setting [4] is 102 % of control and 113 % of control and 96 % of control; the T/C under setting [5] was 100 % of control and 101 % of control and 120 % of control; the T/C under setting [6] is 88 % of control and 92 % of control and 95 % of control.

In the case of `CC(=O)OC1CN(c2ccc(Br)cc2)CC(OC(C)=O)CN(c2ccc(Br)cc2)C1` (stereo unspecified), the T/C by setting is: under setting [10], 99 % of control; under setting [11], 100 % of control; (dose: 200.0 mg/kg/injection, schedule: Q01DX009 (ip), vehicle: Klucel (hydroxypropylcellulose) (HPC)) 97 % of control.
